Series [1] concerns the target T1, mouse NPY Y5 receptor (Mus musculus, UniProt O70342).
T1 construct: expressed in transfected cells
T1 sequence (O70342 1-466): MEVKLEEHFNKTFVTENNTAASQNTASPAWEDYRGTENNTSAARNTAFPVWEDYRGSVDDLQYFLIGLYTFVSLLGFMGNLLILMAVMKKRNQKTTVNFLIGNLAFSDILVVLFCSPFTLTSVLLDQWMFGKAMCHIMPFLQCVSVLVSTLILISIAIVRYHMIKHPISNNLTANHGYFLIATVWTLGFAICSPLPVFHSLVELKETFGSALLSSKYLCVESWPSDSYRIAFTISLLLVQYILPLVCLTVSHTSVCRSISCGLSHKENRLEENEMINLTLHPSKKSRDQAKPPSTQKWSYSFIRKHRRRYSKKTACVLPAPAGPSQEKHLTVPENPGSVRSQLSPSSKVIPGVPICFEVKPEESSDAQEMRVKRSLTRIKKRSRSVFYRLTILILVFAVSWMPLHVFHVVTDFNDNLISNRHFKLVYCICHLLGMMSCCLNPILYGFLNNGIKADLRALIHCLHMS
The experiment in a line: Affinity for mouse NPY Y5 receptor ([125I] peptide YY binding, CHO cell membranes). The note with it: inhibition of specific [125I] peptide YY binding, membranes of CHO cells expressing mouse NPY Y5 receptor. The source says: cDNA sequence encoding a mouse NPY Y5 receptor (Biochim. Biophys. Acta 1328:83-89, 1997) was cloned in a vector (pME18S, Takebe et al. Mol. Cell. Biol. 8, 8957). The obtained expression vector was transfected into CHO cells as a host by using Lipofect AMINE Reagent (Trademark, Gico BRL Co., Ltd.) according to the instruction manual. The cells that stably express NPY Y5 receptor were obtained.
The membranes prepared from the CHO cells expressing NPY Y5 receptor, the compound of this invention and 30,000 cpm [^125I] peptide YY (60 pM of final concentration: Amersham) were incubated in the assay buffer (20 mM HEPES-Hanks buffer containing 0.1% bovine serum albumin, pH 7.4) at 25° C. for 2 hours, and then the membrane was filtered from the mixture through a glass filter (GF/C) presoaked with 1% polyethyleneimine. After washing with 50 mM Tris-HCl buffer (pH 7.4), radioactivity retained on the filters was quantified with a gamma counter. Nonspecific binding was defined as the amount of radioactivity bound to the membranes after incubation in the presence of 200 nM of peptide YY. The 50% inhibitory concentration of the test compound against the specific peptide YY binding (IC50 value) was calculated (Inui, A. et al. Endocrinology 131, 2090-2096 (1992)).

Series [2] in a line: Evaluation for brain penetration in rats (cassette dosing). In kind it is in vivo. The note with it: male, Crl; CD (SD), rat; brain/plasma partition coefficient, 30 minutes after intravenous administration (0.5 mg/mL/kg) in rats. As to the method:
(§1) By using the cassette dosing method (Drug. Metab. Dispos. (2001); 29, 957-966), brain penetration rate of the compounds (brain/plasma partition coefficients; Kp) were evaluated from plasma and brain concentrations at 30 minutes after intravenous administration (0.5 mg/mL/kg) in rats (Crl; CD (SD), ♂, 8 weeks) or at 3 or 5 hours after oral administration (2 mg/10 mL/kg) in mice (Jcl; C57BL/6J, ♂, 8 weeks).

Series [3] is described as follows: Evaluation for brain penetration in mice (cassette dosing). The series is classed as in vivo. The note with it: male, Jcl; C57BL/6J, mouse; brain/plasma partition coefficient, 3 or 5 hours after oral administration (2 mg/10 mL/kg) in mice. Here is the method:
as §1

Series [4] can be described thus: Pharmacokinetic analysis in rats (cassette dosing, intravenous). In kind it is in vivo. The note with it: male, Crl, CD (SD), rat, plasma, intravenous administration (0.5 mg/mL/kg); for clearance: read-out: Rat CLtot; for half-life: read-out: Rat t½ (converted). Here is the method: By using the cassette dosing method, half-life (t1/2) and total clearance (CLtot) of the compounds of this invention were estimated from change in plasma concentration of each compound in rats (Crl; CD (SD), ♂, 8 weeks) after intravenous administration (0.5 mg/mL/kg).

Series [5] deals with T2, NPY Y5 receptor (Mus musculus, UniProt O70342).
T2 construct: from tissue
T2 sequence (O70342 1-466): T1 sequence (O70342 1-466)
Put plainly: Food intake in mice induced by ICV NPY Y5 receptor specific agonist. The series is classed as in vivo. Here is the method:
Under diethylether anesthesia the skull of male C57BL/6J mice (12-14 week old, 25-30 g) was exposed by making an incision about 1-cm long from external occipital crest to nasal dorsum, and drilled in the 1-mm lateral position to the left following 1-mm posterior from bregma. After recovery from anesthesia mice were dosed with either 0.5% hydroxypropylmethyl cellulose solution (Shin-Etsu Chemical Co., Ltd) or the compounds of this invention suspended in the 0.5% hydroxypropylmethyl cellulose solution. At one hour after the treatment, each animal received a NPY Y5 receptor specific agonist, [cPP^1-7, NPY^19-23, Ala^31, Aib^32, Gln^34]-hPancreatic Polypeptide (0.1 nmol/1.5 μL/mouse) through the skull opening using a canula. Residual food was measured at 2 and 4 hours after the treatment, and the difference in food intake between the compounds-treated mice and 0.5% hydroxypropylmethyl cellulose solution-treated mice was calculated. The compound at 6 mg/kg caused a significant reduction in food intake of mice compared to the treatment with 0.5% hydroxypropylmethyl cellulose solution.
For example, mean food intakes at 2 and 4 hours after oral administration of Compound IVa-9 at 6 mg/kg in mice (Group A) were 0.24±0.05 g and 0.51±0.06 g, respectively. On the other hand, mean food intakes at 2 and 4 hours after oral administration of 0.5% hydroxypropylmethyl cellulose solution in mice (Group B) were 0.58±0.07 g and 1.26±0.10 g, respectively. Also, mean food intakes at 2 and 4 hours after oral administration of 0.5% hydroxypropylmethyl cellulose solution without ICV injection of NPY Y5 receptor specific agonist in mice (Group C) were 0.06±0.04 g and 0.14±0.05 g, respectively. After subtracting the mean value of Group C from that of Group A or B, the inhibition rates of the compound on food intake at 2 and 4 hours after administration in Group A against Group B were estimated.

The record followed here is patent US8299066B2, “Compounds having NPY Y5 receptor antagonistic activity” (Shionogi & Co., Ltd., priority 2008, dated 2012).

As a reminder, the IC50 is the point on the concentration scale where inhibition reaches its midpoint. In series [1], `CC(C)(C)S(=O)(=O)N[C@H]1CC[C@H](c2nc(-c3ccccc3)c[nH]2)CC1` [IIIa-1] came in with an IC50 of 0.85 nM.

By Kp is commonly meant the ratio of the level in a tissue or fluid to that in plasma or blood. Regarding `CC(C)(C)S(=O)(=O)N[C@H]1CC[C@H](c2nc(-c3ccc(Cl)c(Cl)c3)c[nH]2)CC1` [IIIa-4], in series [2], the Kp at 0.5 h is 1.37. For the same molecule, the Kp at 5 h in series [3] was found to be 0.45. For the same molecule, in series [4], the clearance was determined as 14.8 mL/min/kg and the half-life is 2.96 h.

In the case of `CC(C)(C)S(=O)(=O)N[C@H]1CC[C@H](c2nc(-c3cccc(C#N)c3)c[nH]2)CC1` [IIIa-13], in series [4], the clearance was found to be 14.5 mL/min/kg and the half-life was 1.17 h.

With `CC(C)(C)S(=O)(=O)N[C@H]1CC[C@H](c2nc(-c3ccccc3)c(Cl)[nH]2)CC1` [IIIb-1], in series [4], the clearance stood at 3.46 mL/min/kg and the half-life was 4.04 h.

Turning to `CC(C)(C)S(=O)(=O)N[C@H]1CC[C@H](c2nc(-c3ccccc3)c(C(F)(F)F)[nH]2)CC1` [IIIb-5], in series [4], the clearance worked out at 3.84 mL/min/kg and the half-life was 7.67 h.

In series [1], `COc1cccc(-c2nc([C@H]3CC[C@H](NS(=O)(=O)C(C)(C)C)CC3)[nH]c2C(F)(F)F)c1` [IIIb-7] registered an IC50 of 0.7 nM.

`CC(C)(C)S(=O)(=O)N[C@H]1CC[C@H](c2[nH]cc(-c3ccccc3)c2C#N)CC1` [IIa-3] displayed an IC50 in series [1] of 0.22 nM.

As for `CC(C)(C)S(=O)(=O)N[C@H]1CC[C@H](c2cc(-c3ccccc3)n[nH]2)CC1` [IVa-3], the IC50 in series [1] amounted to 1.4 nM. The same molecule yielded a Kp at 0.5 h in series [2] of 3.69. Also, in series [3], the concentration ratio (Kp) at 5 h was found to be 1.78. For the same molecule, in series [4], the clearance came out at 7.43 mL/min/kg and the half-life was 3.82 h.

`CC(C)(C)S(=O)(=O)N[C@H]1CC[C@H](c2cc(-c3ccc(F)cc3)n[nH]2)CC1` [IVa-9] yielded a Kp at 0.5 h in series [2] of 2.28. Further, the Kp at 5 h in series [3] turned out to be 2.41. For the same molecule, in series [4], the clearance is 2.67 mL/min/kg and the half-life is 13.6 h. Also, in series [5] (6 mg/kg oral, Group A against Group B after subtracting Group C, 2 hours), the “inhibition rate on food intake at 2 hours” value was determined as 65.4%. In series [5] (6 mg/kg oral, Group A against Group B after subtracting Group C, 4 hours), the “inhibition rate on food intake at 4 hours” value is recorded as 67.0%. The “mean food intake at 2 hours” value in series [5] (oral administration at 6 mg/kg in mice, ICV NPY Y5 agonist, 2 hours) was 0.24 ± 0.05 g. For the same molecule, the “mean food intake at 4 hours” value in series [5] (oral administration at 6 mg/kg in mice, ICV NPY Y5 agonist, 4 hours) is 0.51 ± 0.06 g.

In series [2], `Cc1c(-c2ccccc2)n[nH]c1[C@H]1CC[C@H](NS(=O)(=O)C(C)(C)C)CC1` [IVb-1] gave a Kp at 0.5 h of 1.88. In series [3], this molecule showed a Kp at 5 h of 1.44.

`CC(C)(C)S(=O)(=O)N[C@H]1CC[C@H](c2[nH]nc(-c3ccccc3)c2F)CC1` [IVb-3] gave a concentration ratio (Kp) at 0.5 h in series [2] of 5.84. The molecule also displayed a Kp at 5 h in series [3] of 3.14. In series [4], the clearance was found to be 4.04 mL/min/kg and the half-life is 8.14 h.

`CC(C)(C)S(=O)(=O)N[C@H]1CC[C@H](c2[nH]nc(-c3ccccc3)c2C#N)CC1` [IVb-23]: in series [1], the IC50 stood at 0.37 nM.

In series [1], `CC(C)(C)S(=O)(=O)N[C@H]1CC[C@H](c2cc3c(-c4ccccn4)cccc3[nH]2)CC1` [Ia-2] yielded an IC50 of 1.1 nM.

In series [1], `CC(C)(C)S(=O)(=O)N[C@H]1CC[C@H](c2cc3cc(-c4ccccn4)ccc3[nH]2)CC1` [Ia-7] showed an IC50 of 0.28 nM.

`CC(C)(C)S(=O)(=O)N[C@H]1CC[C@H](c2cc3cc(-c4ncccn4)ccc3[nH]2)CC1` [Ia-8] displayed a partition ratio (Kp) at 0.5 h in series [2] of 3.55. The molecule further had a Kp at 5 h in series [3] of 2.11. Besides, in series [4], the clearance is 17.8 mL/min/kg and the half-life is 1.57 h.

On to `CC(C)(C)S(=O)(=O)N[C@H]1CC[C@H](c2cc3ccc(-c4ccccn4)cc3[nH]2)CC1` [Ia-18], for which the IC50 in series [1] is 5.5 nM.

In series [2], `CC(C)(C)S(=O)(=O)N[C@H]1CC[C@H](c2cc3nc(-c4ccccc4F)ccc3[nH]2)CC1` [Ib-13] returned a Kp at 0.5 h of 2.3. Further, the Kp at 5 h in series [3] was found to be 1.33.

Consider `CC(C)(C)S(=O)(=O)N[C@H]1CC[C@H](c2cc3nc(-c4ccccn4)ccc3[nH]2)CC1` [Ib-14], for which, in series [1], the half-maximal inhibitory concentration (IC50) amounted to 0.29 nM.

On to `CC(C)(C)S(=O)(=O)N[C@H]1CC[C@H](c2cc3c(-c4ccccn4)cncc3[nH]2)CC1` [Ib-28], for which the 50% inhibitory concentration (IC50) in series [1] was found to be 1.3 nM.

In turn, `CC(C)(C)S(=O)(=O)N[C@H]1CC[C@H](c2cc3cc(-c4ccccn4)cnc3[nH]2)CC1` [Ib-32] returned a half-inhibitory concentration (IC50) in series [1] of 0.75 nM.

`CC(C)(C)S(=O)(=O)N[C@H]1CC[C@H](c2cc3nc(-c4ccc(F)cc4)ncc3[nH]2)CC1` [Ib-35] yielded a concentration ratio (Kp) at 0.5 h in series [2] of 1.91. Also, the Kp at 5 h in series [3] came out at 0.89.

In series [1], `CC(C)(C)S(=O)(=O)N[C@H]1CC[C@H](c2nc(-c3ccccc3)n[nH]2)CC1` [Va-2] displayed a half-inhibitory concentration (IC50) of 2.2 nM. In addition, in series [4], the clearance stood at 2.6 mL/min/kg and the half-life was 6.4 h.

Consider `CC(C)(C)S(=O)(=O)N[C@H]1CC[C@H](c2nc(-c3cccc(Cl)c3)n[nH]2)CC1` [Va-5], for which, in series [4], the clearance is 3.82 mL/min/kg and the half-life was 9.1 h.
